In brackets after ≈: the same amount, converted by molar mass. Like-named read-outs stand apart in the source and are kept apart here.
Columns and labels:
Gray mold fungus [1] = assay: Preventive test on gray mold of bean leaves
Sclerotinia rot fungus [2] = assay: Preventive test on sclerotinia rot of bean leaves
Xanthomonas citri = assay: MIC, agar dilution method; assay type: cell-based
Sclerotinia cinerea [3] = details: 200 mcg/ml solution, 2 days at 27°C
[4] = system: Brown rot (Sclerotinia cineria); assay: Field test on brown rot of peach; assay type: in vivo; details: for Morbidity after 7 days since packaging: room temperature storage
Excerpt: Test on Brown rot (Sclerotinia cineria) of peach (field test):
Both the morbidity upon harvest and morbidity of the fruit packed in a cardboard box for storage at room temperature were investigated.

Gray mold fungus [5] = assay: Curative test on gray mold of bean leaves; details: 48 hours
Vibrio comma 904 = assay: MIC, agar dilution method; assay type: cell-based
Botorytis cinerea = details: 48 hours
Sclerotinia cinerea [6] = details: 72 hours
[7] = system: Bacillus subtilis PCI 219
[8] = system: Staphylococcus aureus FDA 209 p
[9] = not given; remark: listed apart in the source
Sclerotinia rot fungus [10] = details: curative, 48 hours
Mice = details: for LD50: mice; for No abnormality (dose): mouse, in vivo
crops = details: ordinary dosages
[11] = 50 ppm, sprayed twice, 7-day interval

## CC(N)C(=O)NC1COC(O)C(N)C1O.Cl (stereo not shown)
Gray mold fungus [1]; 25 ppm
  Diameter of disease spot: 23 mm
  Disease spot inhibiting rate: 23%
Gray mold fungus [1]; 50 ppm
  Diameter of disease spot: 10 mm
  Disease spot inhibiting rate: 67%
Sclerotinia rot fungus [2]; 25 ppm
  Diameter of disease spot: 10 mm
  Disease spot inhibiting rate: 71%
Sclerotinia rot fungus [2]; 50 ppm
  Diameter of disease spot: 0 mm
  Disease spot inhibiting rate: 100%

## CC(N)C(=O)NC1COC(O)C(N)C1O (stereo not shown)
Xanthomonas citri; 48 hours
  minimum inhibitory concentration (MIC): > 100 µg/mL
Xanthomonas citri; 72 hours
  minimum inhibitory concentration (MIC): > 100 µg/mL
Sclerotinia cinerea [3]
  inhibition zone diameter: about 35 mm
Candida albicans; 48 hours
  minimum inhibitory concentration (MIC): > 100 µg/mL
Candida albicans; 72 hours
  minimum inhibitory concentration (MIC): > 100 µg/mL
[4]; [11]
  Morbidity upon harvest: 0
  Morbidity after 7 days since packaging: 0
Gray mold fungus [5]; 25 ppm
  Diameter of the disease spot after spraying: 19.3 mm
  Disease spot inhibiting rate: 59%
Gray mold fungus [5]; 50 ppm
  Diameter of the disease spot after spraying: 17.0 mm
  Disease spot inhibiting rate: 75%
Gray mold fungus [5]; 100 ppm
  Diameter of the disease spot after spraying: 16.3 mm
  Disease spot inhibiting rate: 81%
Alternaria japonica; 48 hours
  minimum inhibitory concentration (MIC): 50 µg/mL (≈ 228 µM)
Alternaria japonica; 72 hours
  minimum inhibitory concentration (MIC): 50 µg/mL (≈ 228 µM)
Young carp
  no trouble (concentration): 250 ppm
Xanthomonas oryzae; 48 hours
  minimum inhibitory concentration (MIC): 50 µg/mL (≈ 228 µM)
Xanthomonas oryzae; 72 hours
  minimum inhibitory concentration (MIC): 100 µg/mL (≈ 456 µM)
Dimethyl sulfoxide
  Solubility in dimethyl sulfoxide: Soluble
ethanol
  Solubility in ethanol: sparingly soluble
methanol
  Solubility in methanol: Soluble
Botorytis fabae; 48 hours
  minimum inhibitory concentration (MIC): 6.25 µg/mL (≈ 28.5 µM)
Botorytis fabae; 72 hours
  minimum inhibitory concentration (MIC): 25 µg/mL (≈ 114 µM)
Vibrio comma 904; 24 hours
  minimum inhibitory concentration (MIC): 12.5 µg/mL (≈ 57 µM)
Vibrio comma 904; 48 hours
  minimum inhibitory concentration (MIC): 100 µg/mL (≈ 456 µM)
Aspergillus niger; 48 hours
  minimum inhibitory concentration (MIC): > 100 µg/mL
Aspergillus niger; 72 hours
  minimum inhibitory concentration (MIC): > 100 µg/mL
Botorytis cinerea
  minimum inhibitory concentration (MIC): 6.25 µg/mL (≈ 28.5 µM)
Sclerotinia cinerea [6]
  minimum inhibitory concentration (MIC): 25 µg/mL (≈ 114 µM)
Mycobacterium ATCC 607; 24 hours
  minimum inhibitory concentration (MIC): > 100 µg/mL
Mycobacterium ATCC 607; 48 hours
  minimum inhibitory concentration (MIC): > 100 µg/mL
Trichophyton rubrum; 48 hours
  minimum inhibitory concentration (MIC): 100 µg/mL (≈ 456 µM)
Trichophyton rubrum; 72 hours
  minimum inhibitory concentration (MIC): > 100 µg/mL
[7]; 24 hours
  minimum inhibitory concentration (MIC): > 100 µg/mL
[7]; 48 hours
  minimum inhibitory concentration (MIC): > 100 µg/mL
Various bacteria
  antibacterial action: only weak antibacterial action
Saccharomyces cerevisiae; 48 hours
  minimum inhibitory concentration (MIC): > 100 µg/mL
Saccharomyces cerevisiae; 72 hours
  minimum inhibitory concentration (MIC): > 100 µg/mL
Sclerotinia sclerotiorum; 48 hours
  minimum inhibitory concentration (MIC): 1.56 µg/mL (≈ 7.12 µM)
Sclerotinia sclerotiorum; 72 hours
  minimum inhibitory concentration (MIC): 3.12 µg/mL (≈ 14.2 µM)
[8]; 24 hours
  minimum inhibitory concentration (MIC): > 100 µg/mL
[8]; 48 hours
  minimum inhibitory concentration (MIC): > 100 µg/mL
Alternaria kikuchiana; 48 hours
  minimum inhibitory concentration (MIC): > 100 µg/mL
Alternaria kikuchiana; 72 hours
  minimum inhibitory concentration (MIC): > 100 µg/mL
[9]; allowed to stand for a long time
  stability on standing: activity became lower and it coloured in yellow
[9]; in an acidic solution
  retention of activity: retains its activity
[9]; in the form of aqueous solution
  stability: very stable
[9]; solution neutral to alkaline
  retention of activity: activity is reduced
Sarcina lutea PCI 1001; 24 hours
  minimum inhibitory concentration (MIC): 3.12 µg/mL (≈ 14.2 µM)
Sarcina lutea PCI 1001; 48 hours
  minimum inhibitory concentration (MIC): 3.12 µg/mL (≈ 14.2 µM)
Sclerotinia rot fungus [10]; 50 ppm
  Diameter of the disease spot after spraying: 19.6 mm
  Disease spot inhibiting rate: 62%
Sclerotinia rot fungus [10]; 100 ppm
  Diameter of the disease spot after spraying: 16.3 mm
  Disease spot inhibiting rate: 76%
Ophiobolus miyabianus; 48 hours
  minimum inhibitory concentration (MIC): 25 µg/mL (≈ 114 µM)
Ophiobolus miyabianus; 72 hours
  minimum inhibitory concentration (MIC): 25 µg/mL (≈ 114 µM)
Mice; intravenous injection
  LD50: 160 mg/kg
Mice; oral administration
  LD50: 750 mg/kg
Mice; iv
  No abnormality (dose): 125 mg/kg
Mice; po
  No abnormality (dose): 500 mg/kg
Escherichia coli NIHJ; 24 hours
  minimum inhibitory concentration (MIC): 100 µg/mL (≈ 456 µM)
Escherichia coli NIHJ; 48 hours
  minimum inhibitory concentration (MIC): > 100 µg/mL
crops
  phytotoxicity to crops: does not give phytotoxicity to crops
Holmodendrum pedrosei; 48 hours
  minimum inhibitory concentration (MIC): 25 µg/mL (≈ 114 µM)
Holmodendrum pedrosei; 72 hours
  minimum inhibitory concentration (MIC): 25 µg/mL (≈ 114 µM)

## CCCCNC(=O)n1c(NC(=O)OC)nc2ccccc21 [BENLATE, methyl-1-(butylcarbamoyl)-2-benzimidazole carbamate]
[4]; 50% product × 1000
  Morbidity upon harvest: 0.3
  Morbidity after 7 days since packaging: 46.1

## CC1(C)OC(=O)N(c2cc(Cl)cc(Cl)c2)C1=O [Sclex, 3-(3,5-dichlorophenyl)-5,5-dimethyloxazolidinedione-2,4]
[4]; 20% product × 1500
  Morbidity upon harvest: 0.03
  Morbidity after 7 days since packaging: 7.7
Gray mold fungus [5]; 20% product × 1000 (200 ppm)
  Diameter of the disease spot after spraying: 17.7 mm
  Disease spot inhibiting rate: 61%

— patent US3956487A, “Novel antifungal antibiotic substance, and agricultural and horticultural fungicidal composition containing said substance” (Nihon Tokushu Noyaku Seizo Kabushiki Kaisha, priority 1974, dated 1976)
